Key:
[1] = molecular target: T1, Type-1 angiotensin II receptor (Bos taurus, UniProt P25104); experiment: Binding affinity expressed as inhibitory concentration towards bovine adrenal cortex angiotensin II receptor was measured; assay type: tissue-based
T1 sequence (P25104 whole entry): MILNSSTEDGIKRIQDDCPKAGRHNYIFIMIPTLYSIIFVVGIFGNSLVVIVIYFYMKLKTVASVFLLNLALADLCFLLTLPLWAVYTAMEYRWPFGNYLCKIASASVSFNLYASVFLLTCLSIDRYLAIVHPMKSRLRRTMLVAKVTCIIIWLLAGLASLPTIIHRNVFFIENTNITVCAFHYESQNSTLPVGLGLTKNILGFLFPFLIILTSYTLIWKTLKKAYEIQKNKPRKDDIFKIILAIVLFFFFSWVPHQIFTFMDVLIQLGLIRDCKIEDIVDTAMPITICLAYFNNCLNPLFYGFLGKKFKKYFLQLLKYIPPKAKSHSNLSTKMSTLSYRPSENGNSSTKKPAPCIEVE

[2] = test system: Rattus norvegicus; experiment: Change in mean arterial blood pressure in conscious renin dependent […] rats 1 mg/kg of oral dose after 5 hr; assay type: functional
[3] = molecular target: T2, Angiotensin II receptor (Rattus norvegicus, UniProt P29089+P25095+P35351); experiment: Binding affinity expressed as inhibitory concentration against angiotensin II of rat adrenal cortex; assay type: tissue-based
T2 sequence (P29089 whole entry): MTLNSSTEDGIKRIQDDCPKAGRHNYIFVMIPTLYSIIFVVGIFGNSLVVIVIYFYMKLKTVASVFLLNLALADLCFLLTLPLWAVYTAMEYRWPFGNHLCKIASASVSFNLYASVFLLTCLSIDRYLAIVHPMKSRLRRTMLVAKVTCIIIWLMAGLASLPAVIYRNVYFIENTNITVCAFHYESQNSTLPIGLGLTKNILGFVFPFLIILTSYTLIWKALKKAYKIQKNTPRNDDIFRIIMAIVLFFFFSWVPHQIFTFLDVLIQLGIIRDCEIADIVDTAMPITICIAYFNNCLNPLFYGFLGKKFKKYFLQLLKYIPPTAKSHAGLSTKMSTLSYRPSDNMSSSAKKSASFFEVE
T2 sequence (P25095 whole entry): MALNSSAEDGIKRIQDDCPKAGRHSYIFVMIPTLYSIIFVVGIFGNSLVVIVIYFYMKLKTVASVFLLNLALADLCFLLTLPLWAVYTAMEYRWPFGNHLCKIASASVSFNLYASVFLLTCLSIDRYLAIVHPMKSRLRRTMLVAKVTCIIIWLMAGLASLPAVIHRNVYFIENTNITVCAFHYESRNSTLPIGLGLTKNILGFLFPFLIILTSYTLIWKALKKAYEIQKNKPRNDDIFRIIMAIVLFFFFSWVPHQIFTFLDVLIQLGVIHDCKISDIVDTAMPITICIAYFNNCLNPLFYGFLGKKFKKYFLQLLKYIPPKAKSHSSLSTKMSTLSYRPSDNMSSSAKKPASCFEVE
T2 sequence (P35351 whole entry): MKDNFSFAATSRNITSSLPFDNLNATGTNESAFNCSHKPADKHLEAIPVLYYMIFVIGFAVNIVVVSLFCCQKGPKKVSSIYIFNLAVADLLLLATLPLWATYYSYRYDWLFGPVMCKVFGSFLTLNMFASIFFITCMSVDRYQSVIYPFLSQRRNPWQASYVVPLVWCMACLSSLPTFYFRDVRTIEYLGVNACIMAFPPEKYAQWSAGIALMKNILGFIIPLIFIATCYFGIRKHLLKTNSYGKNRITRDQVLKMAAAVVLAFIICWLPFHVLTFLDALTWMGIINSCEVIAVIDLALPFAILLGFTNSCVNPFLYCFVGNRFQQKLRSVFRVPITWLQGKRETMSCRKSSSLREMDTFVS

[4] = test system: Rattus norvegicus; experiment: Tested for […] in the […] rat at 3 mg/kg of oral dose; […]; assay type: functional, organism-based; design: dose 3 mg/kg
[5] = test system: Rattus norvegicus; experiment: Decrease in mean arterial blood pressure in aorta coated rats 3 mg/kg of oral dose after 4 hr; assay type: functional
[6] = test system: Rattus norvegicus; experiment: Percent Inhibition of AII vasopressor response in SHR at 1 mg/kg oral dose in hypertensive rats after 5 h; assay type: functional
[7] = molecular target: T2, Angiotensin II receptor; experiment: Binding affinity expressed as inhibitory concentration against angiotensin II receptor of rat adrenal cortex; assay type: tissue-based
[8] = molecular target: T1, Type-1 angiotensin II receptor; experiment: Compound was tested for in vitro for AII receptor antagonistic activity in bovine adrenal cortex.; assay type: functional, tissue-based

Structure (SMILES)	IC50 [1]	IC50 [7]	IC50 [8]	Change in BP ([2]; 1 mg/kg)	inhibition in vivo at 1 mg/kg [6]	also measured
CCCCc1nc2ccc(C(C)(O)C[C@H]3CCCN3)cc2c(=O)n1Cc1ccc(-c2ccccc2-c2nn[nH]n2)cc1 (stereo not given in full)						Activity [4]: Weak activity; Change in BP [5]: 32 mmHg
CCc1nc2c(C)cc(C)nc2n1Cc1ccc(-c2ccccc2-c2nnn[nH]2)cc1 [L-158809]			0.027 µM			
CCCCc1nc2ccc(C(C)(O)C[C@H]3CCCN3)cc2c(=O)n1Cc1ccc(-c2ccccc2-c2nnn[nH]2)cc1 (stereo not given in full)			0.0035 µM			

Continued, in another order:

IC50 [1]	IC50 [7]	IC50 [8]	Structure (SMILES)	Change in BP ([2]; 1 mg/kg)	inhibition in vivo at 1 mg/kg [6]	also measured
0.026 µM			CCCCc1nc2ccc([C@]3(C)C[C@H]4CCCN4O3)cc2c(=O)n1Cc1ccc(-c2ccccc2-c2nn[n-]n2)cc1.[Na+] (stereo in doubt; 1a)	0 mmHg		IC50 [3]: 0.017 µM
0.077 µM	0.026 µM		CCCCc1nc2ccc([C@@]3(C)C[C@@H]4CCCN4O3)cc2c(=O)n1Cc1ccc(-c2ccccc2-c2nnn[n-]2)cc1.[Na+]		-10%	Change in BP [2]: -3 mmHg
0.038 µM	0.017 µM		CCCCc1nc2ccc([C@]3(C)C[C@H]4CCCN4O3)cc2c(=O)n1Cc1ccc(-c2ccccc2-c2nn[n-]n2)cc1.[Na+] (stereo in doubt; 14)	-4 mmHg	40%	

Source: ChEMBL document CHEMBL1127933, “Synthesis and biological evaluation of the potent isoxazolidinyl angiotensin II receptor antagonist CL332,877 and its enantiomers” (Bioorg Med Chem Lett, 1994)
